Data on 21 compounds can be found in US20090131431A1, “Pyrazolo[3,4-b]pyridine compounds, and their use as a PDE4 inhibitors” (priority 2005, published 2009).

Structures can show the parent of a compound that is named as a salt.

The assay deals with T1, PDE4B (human recombinant) (Homo sapiens, UniProt Q07343).
T1 construct: made in house
Kind of assay: Inhibition of PDE4B activity: SPA and/or Fluorescence Polarisation (FP) assay. It counts as biochemical. Particulars: one reading (n=1) or average of 2 or more readings, read-out: PDE4B pIC50 (±about 0.5) (converted). Summed up: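 Human recombinant PDE4B activity measured by SPA with [3H]cAMP at about 10 nM, 1 h at ambient temperature, enzyme set for ≤20% substrate hydrolysis, or by IMAP FP with Fl-cAMP at about 40 nM, 40 min at ambient temperature under linear conditions. Inhibition curves fitted; values reported as pIC50.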

T1 sequence (Q07343 1-564 isoform Q07343-2): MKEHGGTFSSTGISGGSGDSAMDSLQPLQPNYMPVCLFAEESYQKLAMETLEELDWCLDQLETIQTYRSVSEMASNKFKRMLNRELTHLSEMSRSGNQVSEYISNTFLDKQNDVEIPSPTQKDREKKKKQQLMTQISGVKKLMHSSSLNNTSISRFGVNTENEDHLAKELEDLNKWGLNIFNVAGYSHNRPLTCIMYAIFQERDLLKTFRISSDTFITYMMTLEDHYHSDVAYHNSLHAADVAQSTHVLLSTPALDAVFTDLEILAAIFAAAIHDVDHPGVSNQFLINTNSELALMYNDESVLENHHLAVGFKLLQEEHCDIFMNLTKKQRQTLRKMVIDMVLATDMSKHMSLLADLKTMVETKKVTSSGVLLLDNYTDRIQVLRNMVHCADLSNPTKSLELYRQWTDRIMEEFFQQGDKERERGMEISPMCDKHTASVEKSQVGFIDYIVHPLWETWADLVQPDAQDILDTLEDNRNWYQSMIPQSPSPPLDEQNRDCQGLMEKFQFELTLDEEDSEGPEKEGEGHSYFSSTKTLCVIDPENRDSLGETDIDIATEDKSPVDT

For `CCn1ncc2c(NC3CCOCC3)c(CN3Cc4occc4C3=O)c(C)nc21` [Example 301, 5-{[1-ethyl-6-methyl-4-(tetrahydro-2H-pyran-4-ylamino)-1H-pyrazolo[3,4-b]pyridin-5-yl]methyl}-5,6-dihydro-4H-furo[2,3-c]pyrrol-4-one], the IC50 is 0.126 to 1 nM.

Turning to `CCc1nc2c(cnn2CC)c(NC2CCN(C(N)=O)CC2)c1CNC(=O)c1ccc(C(C)(C)C)cc1O` [Example 302, 4-({5-[({[4-(1,1-dimethylethyl)-2-hydroxyphenyl]carbonyl}amino)-methyl]-1,6-diethyl-1H-pyrazolo[3,4-b]pyridin-4-yl}amino)-1-piperidine-carboxamide Formate], the IC50 was 0.01 to 0.1 nM. Regarding `CCn1ncc2c(NC3CCN(C(N)=O)CC3)c(CNC(=O)c3ccc(N4CCOCC4)cc3)c(C)nc21` [Example 303, 4-({1-ethyl-6-methyl-5-[({[4-(4-morpholinyl)phenyl]-carbonyl}amino)methyl]-1H-pyrazolo[3,4-b]pyridin-4-yl}amino)-1-piperidine-carboxamide, Formate Salt], the IC50 was 0.01 to 0.1 nM. On to `CCc1nc2c(cnn2CC)c(NC2CCN(C(N)=O)CC2)c1CNC(=O)c1ccc(NC(C)=O)c2c1OCC2` [Example 304, 4-({5-[({[4-(acetylamino)-2,3-dihydro-1-benzofuran-7-yl]carbonyl}amino)methyl]-1,6-diethyl-1H-pyrazolo[3,4-b]pyridin-4-yl}amino)-1-piperidinecarboxamide], for which the IC50 was 0.01 to 0.1 nM.

Regarding `CCn1ncc2c(NC3CCN(C(N)=O)CC3)c(CNC(=O)c3ccc(NC(C)=O)c4c3OCC4)c(C)nc21` [Example 305, 4-({5-[({[4-(acetylamino)-2,3-dihydro-1-benzofuran-7-yl]carbonyl}amino)methyl]-1-ethyl-6-methyl-1H-pyrazolo[3,4-b]pyridin-4-yl}amino)-1-piperidinecarboxamide], the IC50 is 0.01 to 0.1 nM. As for `CCc1nc2c(cnn2CC)c(NC2CCOCC2)c1CNC(=O)c1ccc(NC(C)=O)c2c1OCC2` [Example 306, 4-(acetylamino)-N-{[1,6-diethyl-4-(tetrahydro-2H-pyran-4-ylamino)-1H-pyrazolo[3,4-b]pyridin-5-yl]methyl}-2,3-dihydro-1-benzofuran-7-carboxamide], the IC50 was 0.01 to 0.1 nM. For the compound `CCc1nc2c(cnn2CC)c(NC2CCOCC2)c1CNC(=O)c1ccc(F)cc1` [Example 307, N-{[1,6-diethyl-4-(tetrahydro-2H-pyran-4-ylamino)-1H-pyrazolo[3,4-b]pyridin-5-yl]methyl}-4-fluorobenzamide], the IC50 was 0.126 to 1 nM. The result for `CCc1nc2c(cnn2CC)c(NC2CCOCC2)c1CNC(=O)c1ccc(F)cc1F` [Example 308, N-{[1,6-diethyl-4-(tetrahydro-2H-pyran-4-ylamino)-1H-pyrazolo[3,4-b]pyridin-5-yl]methyl}-2,4-difluorobenzamide] reads 0.126 to 1 nM. Next, `CCc1nc2c(cnn2CC)c(NC2CCOCC2)c1CNC(=O)c1csc(C)n1` [Example 309, N-{[1,6-diethyl-4-(tetrahydro-2H-pyran-4-ylamino)-1H-pyrazolo[3,4-b]pyridin-5-yl]methyl}-2-methyl-1,3-thiazole-4-carboxamide]: 0.126 to 1 nM; `CCc1nc2c(cnn2CC)c(NC2CCOCC2)c1CNC(=O)c1coc(C)n1` [Example 310, N-{[1,6-diethyl-4-(tetrahydro-2H-pyran-4-ylamino)-1H-pyrazolo[3,4-b]pyridin-5-yl]methyl}-2-methyl-1,3-oxazole-4-carboxamide]: 0.126 to 1 nM; `CCc1nc2c(cnn2CC)c(NC2CCOCC2)c1CNC(=O)c1cnc(C)s1` [Example 311, N-{[1,6-diethyl-4-(tetrahydro-2H-pyran-4-ylamino)-1H-pyrazolo[3,4-b]pyridin-5-yl]methyl}-2-methyl-1,3-thiazole-5-carboxamide]: 0.01 to 0.1 nM. The result for `CCn1ncc2c(NC3CCOCC3)c(CNC(=O)c3ccc(F)cc3F)c(C)nc21` [Example 312, N-{[1-ethyl-6-methyl-4-(tetrahydro-2H-pyran-4-ylamino)-1H-pyrazolo[3,4-b]pyridin-5-yl]methyl}-2,4-difluorobenzamide] reads 0.126 to 1 nM; that for `CCn1ncc2c(NC3CCOCC3)c(CNC(=O)c3ccc(F)cc3)c(C)nc21` [Example 313, N-{[1-ethyl-6-methyl-4-(tetrahydro-2H-pyran-4-ylamino)-1H-pyrazolo[3,4-b]pyridin-5-yl]methyl}-4-fluorobenzamide], 0.126 to 1 nM.

As to `CCn1ncc2c(NC3CCOCC3)c(CN3Cc4ccc(F)cc4C3=O)c(C)nc21` [Example 314, 2-{[1-ethyl-6-methyl-4-(tetrahydro-2H-pyran-4-ylamino)-1H-pyrazolo[3,4-b]pyridin-5-yl]methyl}-6-fluoro-2,3-dihydro-1H-isoindol-1-one], the IC50 is 0.126 to 1 nM. On to `CCc1nc2c(cnn2CC)c(NC2CCOCC2)c1CN1Cc2ccc(F)cc2C1=O` [Example 315, 2-{[1,6-diethyl-4-(tetrahydro-2H-pyran-4-ylamino)-1H-pyrazolo[3,4-b]pyridin-5-yl]methyl}-6-fluoro-2,3-dihydro-1H-isoindol-1-one], for which the IC50 was 0.01 to 0.1 nM.

Regarding `CCn1ncc2c(NC3CCOCC3)c(CN3Cc4ccc(C(F)(F)F)cc4C3=O)c(C)nc21` [Example 316, 2-{[1-ethyl-6-methyl-4-(tetrahydro-2H-pyran-4-ylamino)-1H-pyrazolo[3,4-b]pyridin-5-yl]methyl}-6-(trifluoromethyl)-2,3-dihydro-1H-isoindol-1-one], the IC50 is 0.01 to 0.1 nM. The result for `CCc1nc2c(cnn2CC)c(NC2CCOCC2)c1CN1Cc2ccc(C(F)(F)F)cc2C1=O` [Example 317, 2-{[1,6-diethyl-4-(tetrahydro-2H-pyran-4-ylamino)-1H-pyrazolo[3,4-b]pyridin-5-yl]methyl}-6-(trifluoromethyl)-2,3-dihydro-1H-isoindol-1-one] reads 0.01 to 0.1 nM; that for `CCn1ncc2c(NC3CCOCC3)c(CNC(=O)c3coc(C)n3)c(C)nc21` [Example 318, N-{[1-ethyl-6-methyl-4-(tetrahydro-2H-pyran-4-ylamino)-1H-pyrazolo[3,4-b]pyridin-5-yl]methyl}-2-methyl-1,3-oxazole-4-carboxamide], 0.126 to 1 nM.

Regarding `CCn1ncc2c(NC3CCOCC3)c(CNC(=O)c3csc(C(F)(F)F)n3)c(C)nc21` [Example 319, N-{[1-ethyl-6-methyl-4-(tetrahydro-2H-pyran-4-ylamino)-1H-pyrazolo[3,4-b]pyridin-5-yl]methyl}-2-(trifluoromethyl)-1,3-thiazole-4-carboxamide], the IC50 is 0.126 to 1 nM.

With `CCn1ncc2c(NC3CCOCC3)c(CNC(=O)c3cnc(C)s3)c(C)nc21` [Example 322, N-{[1-ethyl-6-methyl-4-(tetrahydro-2H-pyran-4-ylamino)-1H-pyrazolo[3,4-b]pyridin-5-yl]methyl}-2-methyl-1,3-thiazole-5-carboxamide], the IC50 was 0.126 to 1 nM. In the case of `CCc1nc2c(cnn2CC)c(NC2CCOCC2)c1CNC(=O)c1ccc(C(F)(F)F)o1` [Example 323, N-{[1,6-diethyl-4-(tetrahydro-2H-pyran-4-ylamino)-1H-pyrazolo[3,4-b]pyridin-5-yl]methyl}-5-(trifluoromethyl)-2-furancarboxamide], the IC50 is 0.01 to 0.1 nM.
